Source: patent US20010029347A1, “Transdermal administrating device” (POLYTRONICS, LTD., priority 2000, published 2001)

Legend:
[1] = design: species or system HWY hairless rats; conditions: HWY hairless, rat, in vivo
Method: Transdermal administrating devices were attached on the back of each body of HWY hairless rats. A number of the rats were three a group. The concentration of L-ascorbic acid in blood was chemically detected to control the drug concentration in the blood [M^−]. The procedure thereof is described hereunder.
First, a calibration line was prepared. The EB was set at 1.5 V and the transdermal administrating device was attached on the back of each of the test rats.
In addition, blood examination for the rats was performed at those times. From the blood examination, the concentration of ascorbic acid in blood [M^−] was determined.
Next, using the calibration line shown in FIG. 5, the concentration of ascorbic acid in blood [M^−] was promptly converged to a constant value.
According to the indication from the CPU 6, the bias DC power supply 7 was operated to set EB=8V.
When the concentration of ascorbic acid in blood [M^−] should be maintained at a constant value, for example, at 5 (arb. unit) in FIG. 5, the Rd0 should be 6.3 kΩ (kilo ohm) based on the calibration line shown in FIG. 5.
In this case, when the Rd was determined, the EB was temporarily changed to 1.5 V and the voltage drop Vi at the external load was measured.
At the measurement after the current flowing time has elapsed for 20 minutes, the Rd was lower than the Rd0. The CPU 6 operated to feed back the bias voltage to reduce the bias voltage EB.

[2] = Concentration of Polyoxomethalate ion in blood of nude mouse during iontophoresis with transdermal administrating device V (Example 5, no bias power supply); type: in vivo
Method: When the transdermal administrating device V according to Example 5 was loaded on the back of a nude mouse, the chemical cell formed by the active electrode 22 and the inert electrode 24 generated an electromotive force of about 2.9V.
Removing the variable resistor 31 out of the circuit, the measurement and arithmetic operation for Rd and the measurement of the blood concentration in blood [M^−] were performed to prepare a calibration line representing the relationship between the Rd and the [M^−].
Next, a Rd0 value corresponding to a target concentration [M^−]0 was determined from the calibration line and the variable resistor […] was connected to the circuit.
The concentration of drug was controlled by controlling the value of the variable resistor 31 with measuring the Rd at varying times.

| Molecule | concentration of ascorbic acid in blood [M-], overshoot value [1] | time after the beginning of flowing a current to converge to constant blood concentration [1] | concentration of ascorbic acid in blood [M-], converged constant value ([1]; 1.5 hours) [arb. unit] | time after the beginning of flowing a current from which blood concentration [M-] is kept at the target concentration ([2]; control by variable resistor, no bias DC power supply) | permeability (iontophoresis through skin) ([2]; without bias DC power supply) |
| --- | --- | --- | --- | --- | --- |
| O=C1O[C@H]([C@@H](O)CO)C(O)=C1O [ascorbic acid, L-ascorbic acid] | about 6.5 arb. unit | about 1.5 hours | ~5 | – | – |
| K5[SiVW11O40] [Polyoxomethalate ion] | – | – | – | about 2 hours | high permeability |
